Assay [1] has as its system Multidrug resistant Mtb strains. The assay is described as follows: microbe, parasite or virus in culture. The note with it: Mycobacterium tuberculosis. The assay is classed as cell-based.
Assay [2] deals with PAS resistant Mtb: FolC mutants. The assay is classed as cell-based, Mycobacterium tuberculosis.
Assay [3] relates to Extensively drug resistant Mtb strains. The assay is described as follows: microbe, parasite or virus in culture. The conditions noted are these: for MIC: Mycobacterium tuberculosis. Format: cell-based.

≈ marks a conversion by molar mass, not a printed value.

For the compound `Nc1ccc(C(=O)O)c(O)c1` [PAS, para-Aminosalicylic acid], the values for the MIC in assay [1] and in assay [2] were 0.2 to 3.1 µM (≈ 0.0306 to 0.475 µg/mL) and 12.5 to 50 µM, respectively.
Consider `NNC(=O)c1ccncc1` [Isoniazid], for which the MIC in assay [1] fell in the range of 0.4 to 19 µM (≈ 0.0549 to 2.61 µg/mL); in assay [3], 6.3 to 50 µM (≈ 0.864 to 6.86 µg/mL); in assay [2] it was 0.3 to 0.4 µM.
In the case of `CC(=O)NC[C@H]1CN(c2ccc(N3CCOCC3)c(F)c2)C(=O)O1` [Linezolid], the MIC in assay [1] was 0.8 to 1.4 µM (≈ 0.27 to 0.472 µg/mL); in assay [3], 0.9 to 50 µM (≈ 0.304 to 16.9 µg/mL).
As to `Nc1cc(O)c(C(=O)O)cc1F` [Compound 11, 4-Amino-5-fluoro-2-hydroxybenzoic acid], the results for the MIC in assay [1] and in assay [2] were 6.3 to 50 µM (≈ 1.08 to 8.56 µg/mL) and not below 50 µM, respectively. For the same compound, the “activity against XDR and PAS resistant strains” value in assay [3] (most XDR and PAS resistant strains) was “largely inactive”.

Values taken from PMC8941652 (European journal of medicinal chemistry, 2022).
